Source: patent US12679853B2, “Magnesium-serinate compound and use thereof” (priority 2018, dated 2026)

How the values were obtained:
[1] = tested on: mouse hippocampal neuronal HT-22 cells, treated with DMNQ; assay: Neuronal cell protective activity against DMNQ-induced oxidative stress (DiOC6 staining, flow cytometry); type: cell-based; settings: HT-22, DMNQ (10 μM) alone
Protocol: First, 1×10^6 cells were washed three times with 2% FBS-containing PBS solution, and the washed cells were suspended in 70% ethanol and fixed at 4° C. for 1 hour. The fixed cells were washed twice with the same solution, suspended in 250 μl of RNase A solution (50 μg/ml concentration), and incubated at 37° C. for 30 minutes to remove RNA from the cells. […] The cells were analyzed with a flow cytometer (FACS Calibur), and the distribution of the cell cycle was examined based on the content of stained DNA in each cell.

[2] = tested on: mitochondria in the hippocampal neuron cell line HT-22; assay: Seahorse XF Cell Mito Stress Test, mitochondrial oxygen consumption rate; settings: HT-22, 4 h drug treatment, various concentrations
Protocol: All procedures were performed according to the protocol of the Mito Stress Test Kit. First, hippocampal neuronal HT-22 cells were seeded into an XP-96 cell culture plate at a density of 8×10^3 cells/well, and then incubated in DMEM medium in a CO2 incubator at 37° C. for 12 hours. Then, the cells were treated with various concentrations of each of serine and the AST-011 drug. 4 hours after drug treatment, the medium was replaced with fresh medium, and the cells were further incubated in a CO2 incubator at 37° C. for 12 hours. After 12 hours of incubation, the cells were washed twice with assay medium (10 mM glucose, 1 mM pyruvate, 2 mM glutamine, pH 7.4), and 180 μl of medium was added thereto. Then, the cells were incubated in a non-CO2 incubator at 37° C. for 1 hour, and analyzed by a Seahorse extracellular flux (XF) analyzer.

[3] = tested on: Murine hippocampal neuronal cell line HT-22; assay: Cell viability (MTT) assay for neuronal cell proliferation activity
Protocol: Murine hippocampal neuronal cell line HT-22 was cultured in Dulbecco's Modified Eagle's Medium (DMEM) supplemented with 10% fetal bovine serum (FBS) and 100 μg/ml gentamycin at 37° C. under a 5% CO2 atmosphere. In this Example, cells at passage 15 or below were used.
Cell proliferation activity was examined by an MTT assay for measuring cell viability. First, hippocampal neuronal cell HT-22 (1×10^4 cells) was incubated with each of serially diluted sample solutions in 96-well plates for 16 hours, and then mixed with 50 μl of MTT (3-(4,5-dimethyl thiazolyl)2,5-diphenyl tetrazolium bromide) solution (1.1 mg/ml), followed by additional incubation for 4 hours. The formed formazan crystal was dissolved in 150 μl of DMSO solution, and the optical density (OD) at 540 nm was measured using a plate reader.

[4] = Blood-brain barrier (BBB) permeability, L-serine in blood and brain by LC/MS; design: species or system ICR mice; settings: male, ICR, mouse, in vivo, po, 600 mg/kg
Protocol: Each of L-serine and AST-011 was administered to 7-week-old ICR mice (n=3) at a dose of 600 mg/kg, and then the brain tissue and the blood were collected. The concentrations of L-serine distributed in the blood and the brain were quantified using LC/MS, and the BBB permeability was compared between the drugs by calculating the ratio of the concentration of L-serine in the brain to that in the blood.

| Structure (SMILES) | cell damage rate [1] [%] | oxygen consumption rate (OCR) value of mitochondria [2] | activation of cell proliferation ([3]; HT-22, complete medium, 25 to 10,000 μg) | viability at 500 µg/mL ([3]; Mus musculus, HT-22, read-out: cell viability) [%] | Concentration Plasma (L-serine) [4] [ng/mL] |
| --- | --- | --- | --- | --- | --- |
| COC1=C(OC)C(=O)c2ccccc2C1=O [DMNQ, 2,3-dimethoxy-1,4-napthoquinone] | 77.8 | – | – | – | – |
| N[C@@H](CO)C(=O)O [L-serine] | – | OCR value increased at a treatment concentration of up to 100 μg/ml and then decreased slightly at 500 μg/ml | did not significantly activate cell proliferation | 125 | 636 ± 55.2 |
